The target in one assay is T1, FAAH (Mus musculus, UniProt O08914).
T1 construct: mouse brain membrane fraction or cell lysates for mouse assays; from tissue
T1 sequence (O08914 1-579): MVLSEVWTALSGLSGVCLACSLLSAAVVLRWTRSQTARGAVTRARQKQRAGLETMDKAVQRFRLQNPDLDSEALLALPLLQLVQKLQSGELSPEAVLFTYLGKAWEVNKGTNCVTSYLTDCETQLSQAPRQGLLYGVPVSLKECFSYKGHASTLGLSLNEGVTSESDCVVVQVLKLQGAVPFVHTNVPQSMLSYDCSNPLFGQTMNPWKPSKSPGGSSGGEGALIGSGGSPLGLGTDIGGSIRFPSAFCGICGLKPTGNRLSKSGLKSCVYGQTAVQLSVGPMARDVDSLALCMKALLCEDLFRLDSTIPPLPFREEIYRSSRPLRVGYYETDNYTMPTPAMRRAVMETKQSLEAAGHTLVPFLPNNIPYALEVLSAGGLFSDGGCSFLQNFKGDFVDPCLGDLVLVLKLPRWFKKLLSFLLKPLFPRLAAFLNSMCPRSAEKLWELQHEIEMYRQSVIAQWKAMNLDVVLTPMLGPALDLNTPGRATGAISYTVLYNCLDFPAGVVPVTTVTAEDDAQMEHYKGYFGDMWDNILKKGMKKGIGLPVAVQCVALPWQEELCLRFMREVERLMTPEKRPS
In words: In vitro competitive activity-based protein profiling, mouse FAAH. Conditions: for inhibition at 1 µM: read-out: FAAH % inh. 1 μM (mouse). Format: biochemical. The method, boiled down:
(§1)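 Activity measured as fluorescent gel-band intensity of MAGL and FAAH after SDS-PAGE. Before labelling with FP-Rh or HT-01 (30 min, 37 °C), proteomes at 1.0 mg/mL (mouse brain membrane or lysates; human prefrontal cortex or cell membranes) were exposed to varying inhibitor concentrations for 30 min at 37 °C.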

In another assay the target is T2, MAGL (Mus musculus, UniProt O35678).
T2 construct: mouse brain membrane fraction or cell lysates for mouse assays; from tissue
T2 sequence (O35678 1-303): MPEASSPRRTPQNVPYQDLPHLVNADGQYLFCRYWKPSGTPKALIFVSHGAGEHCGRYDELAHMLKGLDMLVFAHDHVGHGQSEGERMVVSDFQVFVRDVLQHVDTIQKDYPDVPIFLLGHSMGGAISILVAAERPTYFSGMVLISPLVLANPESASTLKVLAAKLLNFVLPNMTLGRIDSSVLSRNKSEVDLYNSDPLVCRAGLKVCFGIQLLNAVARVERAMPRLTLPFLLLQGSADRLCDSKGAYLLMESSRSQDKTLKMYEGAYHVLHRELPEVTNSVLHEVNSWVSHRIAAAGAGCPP
In words: In vitro competitive activity-based protein profiling, mouse MAGL. Format: biochemical. Conditions: for inhibition at 1 µM: read-out: MAGL % inh. 1 μM (mouse). The essentials:
as §1

Regarding `CN(Cc1cccc(Oc2cccnc2)c1)[C@@H]1C[C@@H]2CN(C(=O)n3cc(Cl)cn3)C[C@@H]2C1` [Example 165, (4-chloro-1H-pyrazol-1-yl)(cis-5-(methyl(3-(pyridin-3-yloxy)benzyl)amino)hexahydrocyclopenta[c]pyrrol-2(1H)-yl)methanone], at FAAH, the IC50 is at most 100 nM and the inhibition at 1 µM was at least 75%. For the same compound, at MAGL, the IC50 lay within 100 to 1000 nM and the inhibition at 1 µM is at least 75%.
Take `O=C(N1CCC2(CCN(Cc3ccc(F)cc3)C2)C1)n1cc(C(F)(F)F)cn1` (stereo not drawn) [Example 166, (7-(4-fluorobenzyl)-2,7-diazaspiro[4.4]nonan-2-yl)(4-(trifluoromethyl)-1H-pyrazol-1-yl)methanone]: on FAAH, the IC50 lay in the range of 100 to 1000 nM and the inhibition at 1 µM was at least 75%. Also, at MAGL, the 50% inhibitory concentration (IC50) lay within 100 to 1000 nM and the inhibition at 1 µM is at least 75%.
`COc1ccc(CN2CCC3(CCN(C(=O)n4cc(C(F)(F)F)cn4)C3)C2)cc1` (stereo not drawn) [Example 167, (7-(4-methoxybenzyl)-2,7-diazaspiro[4.4]nonan-2-yl)(4-(trifluoromethyl)-1H-pyrazol-1-yl)methanone]: the IC50 at FAAH and at MAGL was 100 to 1000 nM in each case. Further, the inhibition at 1 µM at FAAH and at MAGL was at least 75% in each case.
As to `O=C(N1CCC2(CCN(Cc3cccc(Cl)c3)C2)C1)n1cc(C(F)(F)F)cn1` (stereo not drawn) [Example 168, (7-(3-chlorobenzyl)-2,7-diazaspiro[4.4]nonan-2-yl)(4-(trifluoromethyl)-1H-pyrazol-1-yl)methanone], on FAAH, the half-maximal inhibitory concentration (IC50) was at most 100 nM and the inhibition at 1 µM is at least 75%. At MAGL, the IC50 is at most 100 nM and the inhibition at 1 µM was at least 75%.
For `O=C(N1CCC2(CCN(Cc3cccc(F)c3)C2)C1)n1cc(C(F)(F)F)cn1` (stereo not drawn) [Example 169, (7-(3-fluorobenzyl)-2,7-diazaspiro[4.4]nonan-2-yl)(4-(trifluoromethyl)-1H-pyrazol-1-yl)methanone], at FAAH, the IC50 was at most 100 nM and the inhibition at 1 µM is at least 75%. Also, on MAGL, the IC50 was 100 to 1000 nM and the inhibition at 1 µM was at least 75%.
Take `Cc1cccc(CN2CCC3(CCN(C(=O)n4cc(C(F)(F)F)cn4)C3)C2)c1` (stereo not drawn) [Example 170, (7-(3-methylbenzyl)-2,7-diazaspiro[4.4]nonan-2-yl)(4-(trifluoromethyl)-1H-pyrazol-1-yl)methanone]: on FAAH, the IC50 is at most 100 nM and the inhibition at 1 µM is at least 75%. On MAGL, the half-inhibitory concentration (IC50) lay in the range of 100 to 1000 nM and the inhibition at 1 µM was at least 75%.
For the compound `COc1cccc(CN2CCC3(CCN(C(=O)n4cc(C(F)(F)F)cn4)C3)C2)c1` (stereo not drawn) [Example 171], at FAAH, the IC50 was at most 100 nM and the inhibition at 1 µM is at least 75%. Moreover, on MAGL, the IC50 is 100 to 1000 nM and the inhibition at 1 µM is at least 75%.
For `O=C(N1CCC2(CCN(Cc3cccc(C(F)(F)F)c3)C2)C1)n1cc(C(F)(F)F)cn1` (stereo not drawn) [Example 172, (4-(trifluoromethyl)-1H-pyrazol-1-yl)(7-(3-(trifluoromethyl)benzyl)-2,7-diazaspiro[4.4]nonan-2-yl)methanone], on FAAH, the concentration for half-maximal inhibition (IC50) was at most 100 nM and the inhibition at 1 µM was at least 75%. On MAGL, the 50% inhibitory concentration (IC50) is at most 100 nM and the inhibition at 1 µM is at least 75%.
`Cc1ccc(CN2CCC3(CCN(C(=O)n4cc(C(F)(F)F)cn4)C3)C2)cc1` (stereo not drawn) [Example 173, (7-(4-methylbenzyl)-2,7-diazaspiro[4.4]nonan-2-yl)(4-(trifluoromethyl)-1H-pyrazol-1-yl)methanone]: the inhibition at 1 µM at FAAH and on MAGL was at least 75% in each case.
For the compound `O=C(N1CCC2(CCN(Cc3cccc(N4CCCC4)c3)C2)C1)n1cc(C(F)(F)F)cn1` (stereo not drawn) [Example 174, (7-(3-(pyrrolidin-1-yl)benzyl)-2,7-diazaspiro[4.4]nonan-2-yl)(4-(trifluoromethyl)-1H-pyrazol-1-yl)methanone], the inhibition at 1 µM on FAAH and on MAGL was at least 75% throughout.
Turning to `O=C(N1CCC2(CCN(Cc3cccc(N4CCOCC4)c3)C2)C1)n1cc(C(F)(F)F)cn1` (stereo not drawn) [Example 175, (7-(3-morpholinobenzyl)-2,7-diazaspiro[4.4]nonan-2-yl)(4-(trifluoromethyl)-1H-pyrazol-1-yl)methanone], the inhibition at 1 µM at FAAH and on MAGL was at least 75% throughout.
For `O=C(N1CCC2(CCN(Cc3ccccc3Cl)C2)C1)n1cc(C(F)(F)F)cn1` (stereo not drawn) [Example 176, (7-(2-chlorobenzyl)-2,7-diazaspiro[4.4]nonan-2-yl)(4-(trifluoromethyl)-1H-pyrazol-1-yl)methanone], at FAAH, the half-inhibitory concentration (IC50) was at most 100 nM and the inhibition at 1 µM is at least 75%. Also, at MAGL, the IC50 was at most 100 nM and the inhibition at 1 µM is at least 75%.
Take `O=C(N1CCC2(CCN(Cc3ccccc3F)C2)C1)n1cc(C(F)(F)F)cn1` (stereo not drawn) [Example 177, (7-(2-fluorobenzyl)-2,7-diazaspiro[4.4]nonan-2-yl)(4-(trifluoromethyl)-1H-pyrazol-1-yl)methanone]: the inhibition at 1 µM at FAAH and on MAGL was at least 75% in each case.
Turning to `Cc1ccccc1CN1CCC2(CCN(C(=O)n3cc(C(F)(F)F)cn3)C2)C1` (stereo not drawn) [Example 178, (7-(2-methylbenzyl)-2,7-diazaspiro[4.4]nonan-2-yl)(4-(trifluoromethyl)-1H-pyrazol-1-yl)methanone], on FAAH, the 50% inhibitory concentration (IC50) is 100 to 1000 nM and the inhibition at 1 µM was at least 75%. Besides, at MAGL, the IC50 was in the range of 100 to 1000 nM and the inhibition at 1 µM was at least 75%.
As to `COc1ccccc1CN1CCC2(CCN(C(=O)n3cc(C(F)(F)F)cn3)C2)C1` (stereo not drawn) [Example 179, (7-(2-methoxybenzyl)-2,7-diazaspiro[4.4]nonan-2-yl)(4-(trifluoromethyl)-1H-pyrazol-1-yl)methanone], the inhibition at 1 µM was 50 to 75% at FAAH and at least 75% at MAGL.
In the same order, the values of `O=C(N1CCC2(CCN(Cc3ccccc3C(F)(F)F)C2)C1)n1cc(C(F)(F)F)cn1` (stereo not drawn) [Example 180, (4-(trifluoromethyl)-1H-pyrazol-1-yl)(7-(2-(trifluoromethyl)benzyl)-2,7-diazaspiro[4.4]nonan-2-yl)methanone] are at least 75% and at least 75%.
For `O=C(N1CCC2(CCN(Cc3ccccc3N3CCCC3)C2)C1)n1cc(C(F)(F)F)cn1` (stereo not drawn) [Example 181, (7-(2-(pyrrolidin-1-yl)benzyl)-2,7-diazaspiro[4.4]nonan-2-yl)(4-(trifluoromethyl)-1H-pyrazol-1-yl)methanone], the inhibition at 1 µM was 25 to 50% on FAAH and at least 75% on MAGL.
On to `O=C(N1CCC2(CCN(Cc3ccccc3N3CCOCC3)C2)C1)n1cc(C(F)(F)F)cn1` (stereo not drawn) [Example 182, 2-{[2-(morpholin-4-yl)phenyl]methyl}-7-{[4-(trifluoromethyl)-1H-pyrazol-1-yl]carbonyl}-2,7-diazaspiro[4.4]nonane], for which the inhibition at 1 µM is 25 to 50% on FAAH and at least 75% on MAGL.
For the compound `CN(Cc1ccc(C(F)(F)F)cc1)[C@H]1C[C@@H]2CN(C(=O)n3cc(C(=O)N4CCOCC4)cn3)C[C@@H]2C1` [Example 184, (trans-5-(methyl(4-(trifluoromethyl)benzyl)amino)hexahydrocyclopenta[c]pyrrol-2(1H)-yl)(4-(morpholine-4-carbonyl)-1H-pyrazol-1-yl)methanone], the inhibition at 1 µM on FAAH was at least 75%; on MAGL, 50 to 75%.
For `CN(Cc1ccc(C(F)(F)F)cc1)[C@H]1C[C@@H]2CN(C(=O)n3cc(C(=O)N4CCN(C5CC5)CC4)cn3)C[C@@H]2C1` [Example 186, (4-cyclopropylpiperazin-1-yl)(1-(trans-5-(methyl(4-(trifluoromethyl)benzyl)amino)octahydrocyclopenta[c]pyrrole-2-carbonyl)-1H-pyrazol-4-yl)methanone], the inhibition at 1 µM on FAAH and at MAGL was at least 75% throughout.
On to `O=C(O)c1cnn(C(=O)N2CC3CN(Cc4cccc(Oc5ccccc5)c4)CC3C2)c1` (stereo not drawn) [Example 187, 1-(5-(3-phenoxybenzyl)octahydropyrrolo[3,4-c]pyrrole-2-carbonyl)-1H-pyrazole-4-carboxylic acid], for which the figures for the inhibition at 1 µM on FAAH and at MAGL were at least 75% and 50 to 75%, respectively.
`O=C(c1cnn(C(=O)N2CC3CN(Cc4ccc(Oc5ccc(Cl)cc5)cc4)CC3C2)c1)N1CCCC1` (stereo not drawn) [Example 189, (5-(4-(4-chlorophenoxy)benzyl)hexahydropyrrolo[3,4-c]pyrrol-2(1H)-yl)(4-(pyrrolidine-1-carbonyl)-1H-pyrazol-1-yl)methanone]: at FAAH, the IC50 is at most 100 nM and the inhibition at 1 µM is at least 75%. On MAGL, the IC50 was in the range of 100 to 1000 nM and the inhibition at 1 µM lay in the range of 50 to 75%.
